Data published in PMC4809600, “The Influence of Chronic Wound Extracts on Inflammatory Cytokine and Histatin Stability” (PLoS ONE, 2016).

Legend:
[1] = Stability in CWE with protease inhibitor cocktail (PIC), capillary zone electrophoresis; assay type: in vitro ADME, human; details: 37°C, CZE, 0 h = 100%; for Percentage intact, CWE + PIC 2h / Percentage intact, CWE + PIC 4h / Percentage intact, CWE + PIC 8h / Percentage intact, CWE + PIC 16h / Percentage intact, CWE + PIC 24h / Percentage intact, CWE + PIC 48h / Percentage intact, CWE + PIC 72h / Percentage intact, CWE + PIC 96h: 1 mg/ml in PBS mixed 1:1 with CWE (1 mg/ml protein, pool of 5 donors) in PBS containing PIC (final 1:140 v/v), ratio to imidazole
Method in brief: (§1)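 Peptides or cytokines (1 mg/ml stock) mixed 1:1 with PBS or pooled chronic-wound extract (1 mg/ml protein, three pools of five donors), ±protease inhibitor cocktail, at 37 °C for up to 96 h. Analyzed by capillary zone electrophoresis (pH 2.5 phosphate, 200 nm), with peak ratio to imidazole standard relative to 0 h as % intact.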

[2] = Stability in PBS, capillary zone electrophoresis; assay type: physicochemical; details: 1 mg/ml in PBS mixed 1:1 with PBS, 37°C, 24 h, CZE, UV 200 nm, ratio to imidazole internal standard, 0 h = 100%
Protocol: To determine the stability of the different peptides in CWE, histatins and cytokines were dissolved in PBS at 1 mg/ml. Histatins and cytokines were incubated in a 1:1 ratio with (i) PBS, (ii) CWE in PBS, or (iii) CWE in PBS containing PIC, in a total volume of 25 μl. Imidazole (Sigma-Aldrich) was added as an internal standard, with a final concentration of 100 μg/ml. The mixtures were incubated at 37°C, and samples were taken at 0, 24, 48, 72 and 96 h. For histatins containing mixtures, additional samples were taken after 2, 4, 8 and 16 h of incubation.
The samples were analyzed with a BioFocus 2000 capillary zone electrophoresis system (Bio-Rad Laboratories, Hercules, CA, USA) equipped with an uncoated fused-silica capillary of internal diameter 50 μm and a length of 24 cm. Samples were loaded by pressure injection (5 psi/sec). Separation was performed at 10 kV (cathode at the detector side) at 20°C using 0.1 M phosphate buffer (pH 2.5) as electrolyte and monitored continuously at 200 nm. Peaks were quantified with the BioFocus Integrator software. In order to quantify the percentage of intact peptides remaining after incubation with CWE, the ratios of histatins, rhIL-6 or rhCXCL8 to internal standard was set at 100% at 0h, and the ratios at the other incubation time points were related to this.

[3] = Stability in chronic wound extracts (CWE), capillary zone electrophoresis; assay type: in vitro ADME, human; details: 37°C, CZE; for Percentage intact, CWE 2h / Percentage intact, CWE 4h / Percentage intact, CWE 8h / Percentage intact, CWE 16h / Percentage intact, CWE 24h / Percentage intact, CWE 48h / Percentage intact, CWE 72h / Percentage intact, CWE 96h: 1 mg/ml in PBS mixed 1:1 with CWE (1 mg/ml protein, pool of 5 donors) in PBS, UV 200 nm, ratio to imidazole
Method in brief: as §1

## cyclo(DNLPETGGDSHEKRHHGYRRKFHEKHHSHREFPFYGDYGSNYLY) [cHst1]
[1]; experiment 1 of 3
  Percentage intact, CWE + PIC 2h: 89.1635%
  Percentage intact, CWE + PIC 4h: 81.2396%
  Percentage intact, CWE + PIC 8h: 74.181%
  Percentage intact, CWE + PIC 16h: 65.982%
  Percentage intact, CWE + PIC 48h: 68.226%
  Percentage intact, CWE + PIC 72h: 63.1229%
  Percentage intact, CWE + PIC 96h: 57.543%
[1]; experiment 2 of 3
  Percentage intact, CWE + PIC 2h: 89.9717%
  Percentage intact, CWE + PIC 4h: 77.3258%
  Percentage intact, CWE + PIC 8h: 79.1445%
  Percentage intact, CWE + PIC 16h: 74.0107%
  Percentage intact, CWE + PIC 48h: 72.203%
  Percentage intact, CWE + PIC 72h: 65.5213%
  Percentage intact, CWE + PIC 96h: 57.4907%
[1]; experiment 3 of 3
  Percentage intact, CWE + PIC 2h: 92.8798%
  Percentage intact, CWE + PIC 4h: 92.4896%
  Percentage intact, CWE + PIC 8h: 86.6559%
  Percentage intact, CWE + PIC 16h: 77.3109%
  Percentage intact, CWE + PIC 48h: 63.9246%
  Percentage intact, CWE + PIC 72h: 53.9233%
  Percentage intact, CWE + PIC 96h: 51.0863%
[1]; 24 h, experiment 1 of 3
  Percentage intact, CWE + PIC 24h: 76.8799%
[1]; 24 h, experiment 2 of 3
  Percentage intact, CWE + PIC 24h: 76.3765%
[1]; 24 h, experiment 3 of 3
  Percentage intact, CWE + PIC 24h: 70.9573%
[1]; human, with protease inhibitor cocktail (PIC), CWE with protease inhibitor cocktail (final 1:140 v/v), 24 h, mean of 3 independent experiments, read-out: Remaining fraction of intact peptide after 24 h in CWE + PIC
  remaining at 24 h, 0.5 mg/ml: 74%
[2]; experiment 1 of 3
  Percentage intact, PBS 24h: 91.5758%
[2]; experiment 2 of 3
  Percentage intact, PBS 24h: 95.461%
[2]; experiment 3 of 3
  Percentage intact, PBS 24h: 100.575%
[3]; 0 h = 100%, experiment 1 of 3
  Percentage intact, CWE 2h: 94.125%
  Percentage intact, CWE 4h: 84.7219%
  Percentage intact, CWE 16h: 71.6467%
  Percentage intact, CWE 48h: 29.9428%
  Percentage intact, CWE 72h: 20.4492%
  Percentage intact, CWE 96h: 15.3884%
[3]; 0 h = 100%, experiment 2 of 3
  Percentage intact, CWE 2h: 97.8952%
  Percentage intact, CWE 4h: 88.931%
  Percentage intact, CWE 16h: 74.8159%
  Percentage intact, CWE 48h: 34.7264%
  Percentage intact, CWE 72h: 21.8694%
  Percentage intact, CWE 96h: 19.0259%
[3]; 0 h = 100%, experiment 3 of 3
  Percentage intact, CWE 2h: 100%
  Percentage intact, CWE 4h: 83.8816%
  Percentage intact, CWE 16h: 54.5266%
  Percentage intact, CWE 48h: 26.5123%
  Percentage intact, CWE 72h: 20.7179%
  Percentage intact, CWE 96h: 11.1869%
[3]; 8 h, 0 h = 100%, experiment 1 of 3
  Percentage intact, CWE 8h: 81.3497%
[3]; 8 h, 0 h = 100%, experiment 2 of 3
  Percentage intact, CWE 8h: 83.9314%
[3]; 8 h, 0 h = 100%, experiment 3 of 3
  Percentage intact, CWE 8h: 78.1579%
[3]; 24 h, 0 h = 100%, experiment 1 of 3
  Percentage intact, CWE 24h: 54.5627%
[3]; 24 h, 0 h = 100%, experiment 2 of 3
  Percentage intact, CWE 24h: 58.7294%
[3]; 24 h, 0 h = 100%, experiment 3 of 3
  Percentage intact, CWE 24h: 52.1934%
[3]; human, chronic wound extracts (CWE), 1 mg/ml in PBS mixed 1:1 with CWE (1 mg/ml protein, pools of 5 donors), 8 h, 0 h = 100%, mean of 3 independent experiments, read-out: Original amount of peptide remaining intact after 8 h in CWE
  remaining at 8 h, 0.5 mg/ml: 81%
[3]; human, chronic wound extracts (CWE), 1 mg/ml in PBS mixed 1:1 with CWE (1 mg/ml protein, pools of 5 donors), 24 h, 0 h = 100%, mean of 3 independent experiments, read-out: Original amount of peptide remaining intact after 24 h in CWE
  remaining at 24 h, 0.5 mg/ml: 55%
[3]; human, chronic wound extracts (CWE), incubation with chronic wound extracts, 8 h, read-out: Breakdown (degradation) in CWE in 8 h
  metabolised at 8 h, 0.5 mg/ml: ~20%
